Results taken from patent USRE50724E1, “4-membered ring carboxamides used as nematicides” (SYNGENTA CROP PROTECTION AG, priority 2013, dated 2026).

Test system: Heterodera schachtii
Assay: Heterodera schachtii (sugar beet cyst nematode), nematicide, contact activity: juvenile paralysis in 16-well assay plates
Type: in vivo
Conditions: 200 ppm, approx. 500 juveniles per well, 24 hours incubation at 25° C. in darkness, read-out: nematode immobilization compared to the untreated control
Procedure: Heterodera schachtii (Sugar Beet Cyst Nematode), Nematicide, Contact Activity
The tested application rate of each compound was 200 ppm. All solutions were brought to a concentration of 400 ppm, respectively, as they were subsequently diluted by adding the equivalent amount of water containing juvenile nematodes. After preparation of the suspensions, 1 ml of each suspension and concentration was transferred to 16-well assay plates with a total of three replicates per treatment. Approximately 500 juveniles of Heterodera schachtii were added in 1 ml of water to each well. Nematodes in water served as controls. The plates were placed in a dark box and stored at room temperature. Nematode paralysis was determined after 24 hours incubation at 25° C. in darkness.

Structure (SMILES)	pest or weed control at 200 ppm [%]
O=C(N[C@H]1CC[C@H]1c1ccc(Cl)cc1)c1ncccc1Br [Compound 61.15, 3-bromo-N-[(1S,2S)-2-(4-chlorophenyl)cyclobutyl]pyridine-2-carboxamide]	> 75
O=C(N[C@H]1CC[C@H]1c1ccc(Cl)cc1Cl)c1nnccc1C(F)(F)F [Compound 61.167, N-[(1S,2S)-2-(2,4-dichlorophenyl)cyclobutyl]-4-(trifluoromethyl)pyridazine-3-carboxamide]	> 75
O=C(N[C@H]1CC[C@H]1c1ccc(Cl)cc1)c1sccc1Br [Compound 61.14, 3-bromo-N-[(1S,2S)-2-(4-chlorophenyl)cyclobutyl]thiophene-2-carboxamide]	> 75
O=C(N[C@H]1CC[C@H]1c1ccc(Cl)cc1)c1sccc1Cl [Compound 61.36, 3-chloro-N-[(1S,2S)-2-(4-chlorophenyl)cyclobutyl]thiophene-2-carboxamide]	> 75
COc1ccccc1C(=O)N[C@H]1CC[C@H]1c1ccc(Cl)cc1Cl [Compound 61.58, N-[(1S,2S)-2-(2,4-dichlorophenyl)cyclobutyl]-2-methoxybenzamide]	> 75
Cc1ncoc1C(=O)N[C@H]1CC[C@H]1c1ccc(Cl)cc1Cl [Compound 61.73, N-[(1S,2S)-2-(2,4-dichlorophenyl)cyclobutyl]-4-methyl-1,3-oxazole-5-carboxamide]	> 75
O=C(N[C@H]1CC[C@H]1c1ccc(Cl)cc1)c1ccsc1I [Compound 61.53, N-[(1S,2S)-2-(4-chlorophenyl)cyclobutyl]-2-iodothiophene-3-carboxamide]	> 75
O=C(N[C@H]1CC[C@H]1c1ccc(F)cc1F)c1ncccc1F [Compound 61.124, N-[(1S,2S)-2-(2,4-difluorophenyl)cyclobutyl]-3-fluoropyridine-2-carboxamide]	> 75
O=C(N[C@H]1CC[C@H]1c1ccc(Cl)cc1Cl)c1nccnc1Br [Compound 61.162, 3-bromo-N-[(1S,2S)-2-(2,4-dichlorophenyl)cyclobutyl]pyrazine-2-carboxamide]	> 75
O=C(N[C@H]1CC[C@H]1c1ccc(Cl)cc1Cl)c1ccccc1Cl [Compound 61.89, 2-chloro-N-[(1S,2S)-2-(2,4-dichlorophenyl)cyclobutyl]benzamide]	> 75
Cc1cccc(F)c1C(=O)N[C@H]1CC[C@H]1c1ccc(Cl)cc1 [Compound 61.25, N-[(1S,2S)-2-(4-chlorophenyl)cyclobutyl]-2-fluoro-6-methylbenzamide]	> 75
O=C(N[C@H]1CC[C@H]1c1ccc(F)cc1F)c1ccsc1C(F)(F)F [Compound 61.137, N-[(1S,2S)-2-(2,4-difluorophenyl)cyclobutyl]-2-(trifluoromethyl)thiophene-3-carboxamide]	> 75
O=C(N[C@H]1CC[C@H]1c1ccc(F)cc1F)c1c(F)cccc1Cl [Compound 61.117, 2-chloro-N-[(1S,2S)-2-(2,4-difluorophenyl)cyclobutyl]-6-fluorobenzamide]	> 75
COc1cccnc1C(=O)N[C@H]1CC[C@H]1c1ccc(Cl)cc1Cl [Compound 61.56, N-[(1S,2S)-2-(2,4-dichlorophenyl)cyclobutyl]-3-methoxypyridine-2-carboxamide]	> 75
O=C(N[C@H]1CC[C@H]1c1ccc(F)cc1F)c1ncsc1Br [Compound 61.136, 5-bromo-N-[(1S,2S)-2-(2,4-difluorophenyl)cyclobutyl]-1,3-thiazole-4-carboxamide]	> 75
O=C(N[C@H]1CC[C@H]1c1ccc(Cl)cc1Cl)c1ncsc1Br [Compound 61.98, 5-bromo-N-[(1S,2S)-2-(2,4-dichlorophenyl)cyclobutyl]-1,3-thiazole-4-carboxamide]	> 75
O=C(N[C@H]1CC[C@H]1c1ccc(F)cc1F)c1cccnc1Cl [Compound 61.133, 2-chloro-N-[(1S,2S)-2-(2,4-difluorophenyl)cyclobutyl]pyridine-3-carboxamide]	> 75
O=C(N[C@H]1CC[C@H]1c1ccc(F)cc1F)c1ncccc1Br [Compound 61.146, 3-bromo-N-[(1S,2S)-2-(2,4-difluorophenyl)cyclobutyl]pyridine-2-carboxamide]	> 75
O=C(N[C@H]1CC[C@H]1c1ccc(Cl)cc1Cl)c1ccsc1C(F)(F)F [Compound 61.97, N-[(1S,2S)-2-(2,4-dichlorophenyl)cyclobutyl]-2-(trifluoromethyl)thiophene-3-carboxamide]	> 75
O=C(N[C@H]1CC[C@H]1c1ccc(F)cc1F)c1sccc1Cl [Compound 61.129, 3-chloro-N-[(1S,2S)-2-(2,4-difluorophenyl)cyclobutyl]thiophene-2-carboxamide]	> 75

Structure (SMILES)	pest or weed control at 200 ppm [%]
Cn1cc(C(=O)N[C@H]2CC[C@H]2c2ccc(F)cc2F)c(C(F)F)n1 [Compound 61.127, 3-(difluoromethyl)-N-[(1S,2S)-2-(2,4-difluorophenyl)cyclobutyl]-1-methylpyrazole-4-carboxamide]	> 75
O=C(N[C@H]1CC[C@H]1c1ccc(Cl)cc1)c1ncccn1 [Compound 61.47, N-[(1S,2S)-2-(4-chlorophenyl)cyclobutyl]pyrimidine-2-carboxamide]	> 75
O=C(N[C@H]1CC[C@H]1c1ccc(F)cc1F)c1sccc1Br [Compound 61.143, 3-bromo-N-[(1S,2S)-2-(2,4-difluorophenyl)cyclobutyl]thiophene-2-carboxamide]	> 75
O=C(N[C@H]1CC[C@H]1c1ccc(Cl)cc1Cl)c1ccoc1Br [Compound 61.173, 2-bromo-N-[(1S,2S)-2-(2,4-dichlorophenyl)cyclobutyl]furan-3-carboxamide]	> 75
Cc1nccnc1C(=O)N[C@H]1CC[C@H]1c1ccc(F)cc1F [Compound 61.119, N-[(1S,2S)-2-(2,4-difluorophenyl)cyclobutyl]-3-methylpyrazine-2-carboxamide]	> 75
O=C(N[C@H]1CC[C@H]1c1ccc(Cl)cc1Cl)c1ccsc1Br [Compound 61.87, 2-bromo-N-[(1S,2S)-2-(2,4-dichlorophenyl)cyclobutyl]thiophene-3-carboxamide]	> 75
O=C(N[C@H]1CC[C@H]1c1ccc(F)cc1F)c1ncccc1Cl [Compound 61.141, 3-chloro-N-[(1S,2S)-2-(2,4-difluorophenyl)cyclobutyl]pyridine-2-carboxamide]	> 75
Cc1cccnc1C(=O)N[C@H]1CC[C@H]1c1ccc(Cl)cc1Cl [Compound 61.92, N-[(1S,2S)-2-(2,4-dichlorophenyl)cyclobutyl]-3-methylpyridine-2-carboxamide]	> 75
O=C(N[C@H]1CC[C@H]1c1ccc(Cl)cc1)c1ncccc1Cl [Compound 61.46, 3-chloro-N-[(1S,2S)-2-(4-chlorophenyl)cyclobutyl]pyridine-2-carboxamide]	> 75
O=C(N[C@H]1CC[C@H]1c1ccc(Cl)cc1)c1ccsc1C(F)(F)F [Compound 61.54, N-[(1S,2S)-2-(4-chlorophenyl)cyclobutyl]-2-(trifluoromethyl)thiophene-3-carboxamide]	> 75
O=C(N[C@H]1CC[C@H]1c1ccc(F)cc1F)c1ccccc1I [Compound 61.125, N-[(1S,2S)-2-(2,4-difluorophenyl)cyclobutyl]-2-iodobenzamide]	> 75
O=C(N[C@H]1CC[C@H]1c1ccc(F)cc1F)c1ccccc1Cl [Compound 61.113, 2-chloro-N-[(1S,2S)-2-(2,4-difluorophenyl)cyclobutyl]benzamide]	> 75
O=C(N[C@H]1CC[C@H]1c1ccc(Cl)cc1)c1c(F)cccc1Cl [Compound 61.22, 2-chloro-N-[(1S,2S)-2-(4-chlorophenyl)cyclobutyl]-6-fluorobenzamide]	> 75
O=C(N[C@H]1CC[C@H]1c1ccc(Cl)cc1Cl)c1sccc1Br [Compound 61.59, 3-bromo-N-[(1S,2S)-2-(2,4-dichlorophenyl)cyclobutyl]thiophene-2-carboxamide]	> 75
COc1cccc(F)c1C(=O)N[C@H]1CC[C@H]1c1ccc(Cl)cc1 [Compound 61.24, N-[(1S,2S)-2-(4-chlorophenyl)cyclobutyl]-2-fluoro-6-methoxybenzamide]	> 75
O=C(N[C@H]1CC[C@H]1c1ccc(Cl)cc1Cl)c1ccccc1F [Compound 61.65, N-[(1S,2S)-2-(2,4-dichlorophenyl)cyclobutyl]-2-fluorobenzamide]	> 75
Cc1ccccc1C(=O)N[C@H]1CC[C@H]1c1ccc(Cl)cc1Cl [Compound 61.62, N-[(1S,2S)-2-(2,4-dichlorophenyl)cyclobutyl]-2-methylbenzamide]	> 75
O=C(N[C@H]1CC[C@H]1c1ccc(Cl)cc1Cl)c1cscn1 [Compound 61.88, N-[(1S,2S)-2-(2,4-dichlorophenyl)cyclobutyl]-1,3-thiazole-4-carboxamide]	> 75
O=C(N[C@H]1CC[C@H]1c1ccc(Cl)cc1Cl)c1sccc1Cl [Compound 61.79, 3-chloro-N-[(1S,2S)-2-(2,4-dichlorophenyl)cyclobutyl]thiophene-2-carboxamide]	> 75
O=C(N[C@H]1CC[C@H]1c1ccc(Cl)cc1Cl)c1ncccn1 [Compound 61.90, N-[(1S,2S)-2-(2,4-dichlorophenyl)cyclobutyl]pyrimidine-2-carboxamide]	> 75
